From publication PMC5053523, “In Vitro Antibacterial Activity of Rhodanine Derivatives against Pathogenic Clinical Isolates” (PLoS ONE, 2016)
Converted amounts (≈) assume the structure as drawn. Read-outs that look alike come from different tables or passages of the source.

Assays:
Assay type in all cases: cell-based
K. pneumoniae = test: Broth microdilution MIC, K. pneumoniae
Candida albicans = test: MIC against Candida albicans; details: table prints none, read-out: MIC
Acinetobacter baumannii = test: MIC with/without PMBN, Acinetobacter baumannii
Procedure, shortened: (§1)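 MIC of rhodanines and control antibiotics measured against Gram-negative bacteria in the presence of a sub-inhibitory concentration of colistin or polymixin B nonapeptide (PMBN). Activity was also tested against E. coli SM1411ΔacrAB, which lacks the AcrAB multidrug efflux pump.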

Escherichia coli O157:H7 = test: MIC with/without sub-MIC colistin, Escherichia coli O157:H7
Procedure, shortened: as §1

Bacillus anthracis = test: microbe, parasite or virus in culture
Klebsiella pneumoniae = test: MIC with/without PMBN, Klebsiella pneumoniae
Procedure, shortened: as §1

[1] = tested on: vancomycin resistant enterococci (VRE) E. faecalis; test: Broth microdilution MIC/MBC, VRE E. faecalis; details: for MIC: read-out: MIC
[2] = tested on: vancomycin resistant enterococci (VRE) E. faecium; test: Broth microdilution MIC/MBC, VRE E. faecium; details: for MIC: read-out: MIC
[3] = tested on: methicillin-resistant Staphylococcus aureus (MRSA); test: Broth microdilution MIC/MBC, MRSA
[4] = tested on: Vancomycin Resistant Staphylococcus aureus (VRSA); test: Broth microdilution MIC/MBC, VRSA; details: for MBC / MIC: VRSA
[5] = E. faecalis NR31972 Strain SF 28073
[6] = E. faecium HM 968 Strain ERV102
[7] = E. faecium NR31914 Strain E0120
[8] = E. faecium Patient #1–1 NR-31903

With `O=C(O)[C@H](Cc1ccccc1)N1C(=O)/C(=C/c2cccc(OC/C=C/c3ccc(Cl)c(Cl)c3)c2)SC1=S` [Rh 6] the MIC (K. pneumoniae; K. pneumoniae NR-15417) was >128 µM, the MIC (K. pneumoniae; Klebsiella pneumoniae) was > 128 µM and the MIC (Candida albicans; ATCC10231, C. albicans ATCC 10231, unit from abstract) was > 64 µM. The MIC (Candida albicans; C. albicans NR 29434, unit from abstract) was > 64 µM, the MIC (Candida albicans; C. albicans NR 29435, unit from abstract) was > 64 µM and the MIC (Candida albicans; C. albicans NR29437, unit from abstract) was > 64 µM. For the same compound, the MIC (Candida albicans; C. albicans NR29438, unit from abstract) was > 64 µM, the MIC (Candida albicans; C. albicans NR 29446, unit from abstract) was > 64 µM and the MIC (Candida albicans; C. albicans NR 29448, unit from abstract) was > 64 µM. For the same compound, the MIC (Candida albicans; C. albicans NR 29449, unit from abstract) was > 64 µM, the MIC (Candida albicans; C. albicans NR 29453, unit from abstract) was > 64 µM and the MIC (Candida albicans; C. albicans NR 294436, unit from abstract) was > 64 µM. The MIC (Acinetobacter baumannii; Acinetobacter baumannii ATCC BAA747, PMBN (+) 4 μg/mL, read-out: MIC) was >64 µM, the MIC (Acinetobacter baumannii; Acinetobacter baumannii ATCC BAA19606, PMBN (+) 4 μg/mL, read-out: MIC) was >64 µM and the MIC (Acinetobacter baumannii; Acinetobacter baumannii, ATCCBAA747) was > 128 µM. For the same compound, the MIC (Acinetobacter baumannii; Acinetobacter baumannii, ATCCBAA19606) was > 128 µM, the MIC (Escherichia coli O157:H7; Escherichia coli O157:H7 ATCC 35150, colistin (+) […], read-out: MIC) was >64 µM and the MIC (Escherichia coli O157:H7; Escherichia coli O157:H7 ATCC 700728, colistin (+) […], read-out: MIC) was >64 µM. For the same compound, the MIC (Escherichia coli O157:H7; Escherichia coli, ATCC35150) was > 128 µM, the MIC (Escherichia coli O157:H7; Escherichia coli, ATCC700728) was > 128 µM and the MBC (Bacillus anthracis; Bacillus anthracis AMES35) was 2 µM (≈ 1.14 µg/mL). The MIC (Bacillus anthracis; Bacillus anthracis AMES35) was 2 µM (≈ 1.14 µg/mL), the MBC (Bacillus anthracis; Bacillus anthracis UM23) was 2 µM (≈ 1.14 µg/mL) and the MIC (Bacillus anthracis; Bacillus anthracis UM23) was 2 µM (≈ 1.14 µg/mL). The MBC (Bacillus anthracis; Bacillus anthracis Weybridge) was 2 µM (≈ 1.14 µg/mL), the MIC (Bacillus anthracis; Bacillus anthracis Weybridge) was 2 µM (≈ 1.14 µg/mL) and the MIC (Klebsiella pneumoniae; Klebsiella pneumoniae ATCC BAA 1706, PMBN (+) 4 μg/mL) was >64 µM. The MIC (Klebsiella pneumoniae; Klebsiella pneumoniae ATCC BAA 2146, PMBN (+) 4 μg/mL) was >64 µM, the MIC (Klebsiella pneumoniae; Klebsiella pneumoniae, BAA1706) was > 128 µM and the MIC (Klebsiella pneumoniae; Klebsiella pneumoniae, BAA2146) was > 128 µM. It also gave an MBC ([1]; E. faecalis ERV103 HM-934) of 16 µM (≈ 9.13 µg/mL), an MIC ([1]; E. faecalis ERV103 HM-934) of 8 µM (≈ 4.56 µg/mL) and an MBC [1, 5] of 16 µM (≈ 9.13 µg/mL). The MIC [1, 5] was 8 µM (≈ 4.56 µg/mL), the MBC ([1]; E. faecalis R712 HM-335) was 8 µM (≈ 4.56 µg/mL) and the MIC ([1]; E. faecalis R712 HM-335) was 4 µM (≈ 2.28 µg/mL). For the same compound, the MBC ([1]; E. faecalis S613 HM-334) was 16 µM (≈ 9.13 µg/mL), the MIC ([1]; E. faecalis S613 HM-334) was 8 µM (≈ 4.56 µg/mL) and the MBC ([1]; E. faecalis TX0104 HM-201) was 8 µM (≈ 4.56 µg/mL). For the same compound, the MIC ([1]; E. faecalis TX0104 HM-201) was 8 µM (≈ 4.56 µg/mL), the MBC ([2]; E. faecium E417 HM-965) was > 64 µM and the MIC ([2]; E. faecium E417 HM-965) was 4 µM (≈ 2.28 µg/mL). The MBC ([2]; E. faecium E1071 NR-28978) was > 64 µM, the MIC ([2]; E. faecium E1071 NR-28978) was 8 µM (≈ 4.56 µg/mL) and the MBC [2, 6] was > 64 µM. The MIC [2, 6] was 8 µM (≈ 4.56 µg/mL), the MBC [2, 7] was 64 µM (≈ 36.5 µg/mL) and the MIC [2, 7] was 8 µM (≈ 4.56 µg/mL). For the same compound, the MBC [2, 8] was > 64 µM, the MIC [2, 8] was 4 µM (≈ 2.28 µg/mL) and the MIC50 ([3]; 11 MRSA strains) was 4 µM (≈ 2.28 µg/mL). The MIC90 ([3]; 11 MRSA strains) was 8 µM (≈ 4.56 µg/mL), the MBC ([3]; MRSA NRS 1) was 8 µM (≈ 4.56 µg/mL) and the MIC ([3]; MRSA NRS 1) was 8 µM (≈ 4.56 µg/mL). For the same compound, the MBC ([3]; MRSA NRS 19) was 8 µM (≈ 4.56 µg/mL), the MIC ([3]; MRSA NRS 19) was 8 µM (≈ 4.56 µg/mL) and the MBC ([3]; MRSA NRS 37) was 16 µM (≈ 9.13 µg/mL). The MIC ([3]; MRSA NRS 37) was 8 µM (≈ 4.56 µg/mL), the MBC ([3]; MRSA NRS 107) was 8 µM (≈ 4.56 µg/mL) and the MIC ([3]; MRSA NRS 107) was 8 µM (≈ 4.56 µg/mL). It also gave an MBC ([3]; MRSA NRS 119) of 4 µM (≈ 2.28 µg/mL), an MIC ([3]; MRSA NRS 119) of 4 µM (≈ 2.28 µg/mL) and an MBC ([3]; MRSA NRS 382) of 16 µM (≈ 9.13 µg/mL). It also gave an MIC ([3]; MRSA NRS 382) of 4 µM (≈ 2.28 µg/mL), an MBC ([3]; MRSA NRS 383) of 8 µM (≈ 4.56 µg/mL) and an MIC ([3]; MRSA NRS 383) of 4 µM (≈ 2.28 µg/mL). The MBC ([3]; MRSA NRS 384) was 4 µM (≈ 2.28 µg/mL), the MIC ([3]; MRSA NRS 384) was 4 µM (≈ 2.28 µg/mL) and the MBC ([3]; MRSA NRS 385) was 4 µM (≈ 2.28 µg/mL). It also gave an MIC ([3]; MRSA NRS 385) of 4 µM (≈ 2.28 µg/mL), an MBC ([3]; MRSA NRS 386) of 32 µM (≈ 18.3 µg/mL) and an MIC ([3]; MRSA NRS 386) of 4 µM (≈ 2.28 µg/mL). The MBC ([3]; MRSA NRS 387) was 8 µM (≈ 4.56 µg/mL), the MIC ([3]; MRSA NRS 387) was 4 µM (≈ 2.28 µg/mL) and the MIC50 ([4]; 15 VRSA strains, read-out: MIC 50) was 4 µM (≈ 2.28 µg/mL). For the same compound, the MIC90 ([4]; 15 VRSA strains, read-out: MIC 90) was 8 µM (≈ 4.56 µg/mL), the MBC ([4]; VRSA 1, read-out: MBC) was > 64 µM and the MIC ([4]; VRSA 1, read-out: MIC) was 8 µM (≈ 4.56 µg/mL). The MBC ([4]; VRSA 2, read-out: MBC) was 8 µM (≈ 4.56 µg/mL), the MIC ([4]; VRSA 2, read-out: MIC) was 8 µM (≈ 4.56 µg/mL) and the MBC ([4]; VRSA 3a, read-out: MBC) was 8 µM (≈ 4.56 µg/mL). For the same compound, the MIC ([4]; VRSA 3a, read-out: MIC) was 8 µM (≈ 4.56 µg/mL), the MBC ([4]; VRSA 3b, read-out: MBC) was 16 µM (≈ 9.13 µg/mL) and the MIC ([4]; VRSA 3b, read-out: MIC) was 8 µM (≈ 4.56 µg/mL). It also gave an MBC ([4]; VRSA 4, read-out: MBC) of 8 µM (≈ 4.56 µg/mL), an MIC ([4]; VRSA 4, read-out: MIC) of 4 µM (≈ 2.28 µg/mL) and an MBC ([4]; VRSA 5, read-out: MBC) of 16 µM (≈ 9.13 µg/mL). The MIC ([4]; VRSA 5, read-out: MIC) was 4 µM (≈ 2.28 µg/mL), the MBC ([4]; VRSA 6, read-out: MBC) was 32 µM (≈ 18.3 µg/mL) and the MIC ([4]; VRSA 6, read-out: MIC) was 4 µM (≈ 2.28 µg/mL). The MBC ([4]; VRSA 7, read-out: MBC) was 8 µM (≈ 4.56 µg/mL), the MIC ([4]; VRSA 7, read-out: MIC) was 8 µM (≈ 4.56 µg/mL) and the MBC ([4]; VRSA 8, read-out: MBC) was 16 µM (≈ 9.13 µg/mL). For the same compound, the MIC ([4]; VRSA 8, read-out: MIC) was 4 µM (≈ 2.28 µg/mL), the MBC ([4]; VRSA 9, read-out: MBC) was 16 µM (≈ 9.13 µg/mL) and the MIC ([4]; VRSA 9, read-out: MIC) was 8 µM (≈ 4.56 µg/mL). It also gave an MBC ([4]; VRSA 10, read-out: MBC) of 16 µM (≈ 9.13 µg/mL), an MIC ([4]; VRSA 10, read-out: MIC) of 4 µM (≈ 2.28 µg/mL) and an MBC ([4]; VRSA 11a, read-out: MBC) of 64 µM (≈ 36.5 µg/mL). For the same compound, the MIC ([4]; VRSA 11a, read-out: MIC) was 4 µM (≈ 2.28 µg/mL), the MBC ([4]; VRSA 11b, read-out: MBC) was 32 µM (≈ 18.3 µg/mL) and the MIC ([4]; VRSA 11b, read-out: MIC) was 4 µM (≈ 2.28 µg/mL). The MBC ([4]; VRSA 12, read-out: MBC) was 32 µM (≈ 18.3 µg/mL), the MIC ([4]; VRSA 12, read-out: MIC) was 4 µM (≈ 2.28 µg/mL) and the MBC ([4]; VRSA 13, read-out: MBC) was 32 µM (≈ 18.3 µg/mL). The MIC ([4]; VRSA 13, read-out: MIC) was 8 µM (≈ 4.56 µg/mL).
